Test results published in ChEMBL document CHEMBL1127439, “Structure-activity relationship studies of central nervous system agents. 13. 4-[3-(Benzotriazol-1-yl)propyl]-1-(2-methoxyphenyl)piperazine, a new putative 5-HT1A receptor antagonist, and its analogs” (J Med Chem, 1994).

How the values were obtained:
[1] = organism: Rattus norvegicus; experiment: Selectivity is the ratio between Ki values of 5-HT2 and 5-HT1A
[2] = molecular target: Serotonin 2 (5-HT2) receptor (Rattus norvegicus, UniProt P30994+P08909+P14842); experiment: Tested in vitro for receptor binding affinity against 5-hydroxytryptamine 2 receptor using radioligand [3H]ketanserin; assay type: protein assay
[3] = molecular target: T1, 5-hydroxytryptamine receptor 1A (Rattus norvegicus, UniProt P19327); experiment: Tested in vitro for receptor binding affinity against 5-hydroxytryptamine 1A receptor using radioligand [3H]8-OH-DPAT
T1 sequence (P19327 whole entry): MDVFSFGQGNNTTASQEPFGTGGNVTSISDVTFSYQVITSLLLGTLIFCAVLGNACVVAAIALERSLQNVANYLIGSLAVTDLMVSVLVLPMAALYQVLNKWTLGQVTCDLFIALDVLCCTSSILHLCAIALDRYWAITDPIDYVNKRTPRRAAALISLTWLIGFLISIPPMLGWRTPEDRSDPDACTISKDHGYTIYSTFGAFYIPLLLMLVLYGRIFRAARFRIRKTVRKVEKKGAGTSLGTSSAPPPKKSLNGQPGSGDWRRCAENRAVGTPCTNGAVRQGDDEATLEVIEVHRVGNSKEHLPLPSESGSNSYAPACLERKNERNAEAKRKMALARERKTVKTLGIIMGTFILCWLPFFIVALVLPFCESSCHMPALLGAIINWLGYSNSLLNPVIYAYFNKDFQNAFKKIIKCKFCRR

[4] = tested on: Mus musculus; experiment: Effect on 8-OH-DPAT-induced hypothermia in mice (5 mg/kg) at intraperitoneal dosage of 10 mg/kg of compound after 30 mins; assay type: functional
[5] = tested on: Rattus norvegicus; experiment: Tested for the induction of lower lip retraction (LLR) by the investigated compounds in rat at dosage of 10 mg/kg; assay type: functional
[6] = tested on: Rattus norvegicus; experiment: Tested for the effect on 8-OH-DPAT-induced behavior in reserpine pretreated rat against forepaw treading at dosage of 10 mg/kg; assay type: functional
[7] = tested on: Mus musculus; experiment: Effect on 8-OH-DPAT-induced hypothermia in mice (5 mg/kg) at intraperitoneal dosage of 10 mg/kg of compound after 15 mins; assay type: functional
[8] = tested on: Mus musculus; experiment: Effect on 8-OH-DPAT-induced hypothermia in mice (5 mg/kg) at intraperitoneal dosage of 10 mg/kg of compound after 45 mins.; assay type: functional
[9] = tested on: Mus musculus; experiment: Effect on body temperature in mice at intraperitoneal dosage of 10 mg/kg, (compound administered 30 min before the test) after 60 min; assay type: functional
[10] = tested on: Mus musculus; experiment: Effect on 8-OH-DPAT-induced hypothermia in mice (5 mg/kg) at intraperitoneal dosage of 10 mg/kg of compound after 60 mins; assay type: functional
[11] = tested on: Rattus norvegicus; experiment: Tested for the effect on 8-OH-DPAT-induced lower lip retraction (LLR) in rat at dosage of 10 mg/kg; assay type: functional
[12] = tested on: Mus musculus; experiment: Effect on body temperature in mice at intraperitoneal dosage of 10 mg/kg, (compound administered 30 min before the test) after 30 min; assay type: functional
[13] = tested on: Mus musculus; experiment: Effect on body temperature in mice at intraperitoneal dosage of 10 mg/kg, (compound administered 30 min before the test) after 45 min; assay type: functional
[14] = tested on: Rattus norvegicus; experiment: Tested for the effect on 8-OH-DPAT-induced behavior in reserpine pretreated rat against flat body posture at dosage of 10 mg/kg; assay type: functional

CCCN1CCN(c2ccccc2OC)CC1
Selectivity [1]: 13
Ki [2]: 3290 nM

COc1ccccc1N1CCN(CCn2nc3ccccc3n2)CC1
Selectivity [1]: 43
Ki [3]: 41 nM
Ki [2]: 1760 nM

COc1ccccc1N1CCN(C[C@@H](C(=O)NC(C)(C)C)c2ccccc2)CC1
Delta t [4]: 0 °C
LLR score [5]: 0.1
Behavioral score [6]: 1
Delta t [7]: 0.2 °C
Delta t [8]: 0.3 °C
Delta t [9]: 0.2 °C
Delta t [10]: 0.1 °C
LLR score [11]: 0.8
Delta t [12]: 0.2 °C
Delta t [13]: 0.2 °C
Behavioral score [14]: 9.7

CCCCN1CCN(c2ccccc2OC)CC1
Selectivity [1]: 40
Ki [3]: 57 nM
Ki [2]: 2280 nM
